Measured values from patent US20060106028A1, “Polycyclic aromatics and derivatives thereof and processes for their preparation” (priority 2004, published 2006).

What was measured:
Format in all cases: cell-based
H460 (Lung) = assay: In vitro cytotoxic activity, 36 tumor cell lines panel; conditions: Homo sapiens, NCI-H460, 96 hours
Description: (§1) Culture conditions and activity evaluations of Compound 1 against 36 cancer cell lines were done as described below. Results were expressed as the concentration of drug which inhibits 50% of the cell growth (IC50, calculated using the formula: [Ti/C]×100=−50).
(§2) The compound was dissolved at 10 mM in DMSO. Dilution in vehicle to concentrations of 30, 10, 3, 1 and 0.3 μM were prepared immediately before assays. Depending on the cell line's growth characteristics, 4000-10000 cells were plated in two 96-wells pates (day 0) and incubated for 16 hours. The following day, propidium iodide was added to one of the two plates. Test compound was added to the second plate, as well as vehicle control, and cells further incubated for 96 hours. The compound was tested at each concentration and in triplicates. The equivalent cell number was determined after adding propidium iodide by measuring the signal by fluorescence (Ti for test article, C for control).

DU145 (Prostate) = assay: as above; conditions: Homo sapiens, DU-145, 96 hours
Description: as §1, §2

MCF7 (Mammary) = assay: as above; conditions: Homo sapiens, 96 hours
Description: as §1, §2

1619L (Ovarian) = assay: as above; conditions: 96 hours
Description: as §1, §2

T24 (Bladder) = assay: as above; conditions: 96 hours
Description: as §1, §2

393NL (Renal) = assay: as above; conditions: 96 hours
Description: as §1, §2

HCT116 (Colon) = assay: as above; conditions: Homo sapiens, HCT-116, 96 hours
Description: as §1, §2

1218L (Bladder) = assay: as above; conditions: 96 hours
Description: as §1, §2

HT29 (Colon) = assay: as above; conditions: Homo sapiens, HT-29, 96 hours
Description: as §1, §2

498NL (CNS) = assay: as above; conditions: 96 hours
Description: as §1, §2

526L (Lung) = assay: as above; conditions: 96 hours
Description: as §1, §2

1138L (Uterus) = assay: as above; conditions: 96 hours
Description: as §1, §2

PANC1 (Pancreas) = assay: as above; conditions: Homo sapiens, PANC-1, 96 hours
Description: as §1, §2

1752L (Pleuramesot.) = assay: as above; conditions: 96 hours
Description: as §1, §2

22RV1 (Prostate) = assay: as above; conditions: Homo sapiens, 96 hours
Description: as §1, §2

629L (Lung) = assay: as above; conditions: 96 hours
Description: as §1, §2

529L (Lung) = assay: as above; conditions: 96 hours
Description: as §1, §2

394NL (Melanoma) = assay: as above; conditions: 96 hours
Description: as §1, §2

289L (Lung) = assay: as above; conditions: 96 hours
Description: as §1, §2

536L (Head & Neck) = assay: as above; conditions: 96 hours
Description: as §1, §2

401NL (Mammary) = assay: as above; conditions: 96 hours
Description: as §1, §2

486L (Renal) = assay: as above; conditions: 96 hours
Description: as §1, §2

OVCAR3 (Ovarian) = assay: as above; conditions: Homo sapiens, OVCAR-3, 96 hours
Description: as §1, §2

944L (Renal) = assay: as above; conditions: 96 hours
Description: as §1, §2

514L (Melanoma) = assay: as above; conditions: 96 hours
Description: as §1, §2

899L (Ovarian) = assay: as above; conditions: 96 hours
Description: as §1, §2

251L (Gastric) = assay: as above; conditions: 96 hours
Description: as §1, §2

SF268 (CNS) = assay: as above; conditions: Homo sapiens, SF-268, 96 hours
Description: as §1, §2

PC3M (Prostate) = assay: as above; conditions: Homo sapiens, PC-3M, 96 hours
Description: as §1, §2

LNCAP (Prostate) = assay: as above; conditions: Homo sapiens, 96 hours
Description: as §1, §2

Sheep red blood cells = assay: In vitro toxicity: hemolytic activity; conditions: 2 hrs at 37° C.; 2 to 64 μg/mL; prepared in DMSO or in 6% Tween/4.5% Glycocholate/5% EtOH formulation
Description: In vitro toxicity: Sheep red blood cells were exposed to Compound 1 for 2 hrs at 37° C. at concentrations ranging from 2 to 64 μg/mL. Hemolytic activity was determined by monitoring the amount of hemoglobin released spectrophotometrically.

In the case of `CCC(C)c1cc2c(=O)c3ccc4c(OC)c5c(=O)c6c(O)ccc(O)c6c(=O)c5c(O)c4c3c(=O)c2c(=O)n1CC(=O)N1CC(C(=O)O)NC(=O)C1C` (stereo not shown) [Compound 1], the IC50 (H460 (Lung)) is reported as 6.08 µM, the IC50 (DU145 (Prostate)) is reported as < 410 nM and the IC50 (MCF7 (Mammary)) is reported as 4.37 µM. It also gave an IC50 (1619L (Ovarian)) of 19.6 µM, an IC50 (T24 (Bladder)) of 5.15 µM and an IC50 (393NL (Renal)) of 9.08 µM. For the same compound, the IC50 (HCT116 (Colon)) was 8.24 µM, the IC50 (1218L (Bladder)) was 18.4 µM and the IC50 (HT29 (Colon)) was 5.77 µM. For the same compound, the IC50 (498NL (CNS)) was 3.7 µM, the IC50 (526L (Lung)) was 3.09 µM and the IC50 (1138L (Uterus)) was < 410 nM. For the same compound, the IC50 (PANC1 (Pancreas)) was 14.4 µM, the IC50 (1752L (Pleuramesot.)) was 4.23 µM and the IC50 (22RV1 (Prostate)) was 1650 nM. The IC50 (629L (Lung)) was 11.9 µM, the IC50 (529L (Lung)) was 2200 nM and the IC50 (394NL (Melanoma)) was 9.99 µM. For the same compound, the IC50 (289L (Lung)) was 5.04 µM, the IC50 (536L (Head & Neck)) was 22.5 µM and the IC50 (401NL (Mammary)) was < 410 nM. The IC50 (486L (Renal)) was 20.7 µM, the IC50 (OVCAR3 (Ovarian)) was 26.2 µM and the IC50 (944L (Renal)) was 14.9 µM. It also gave an IC50 (514L (Melanoma)) of 10.7 µM, an IC50 (899L (Ovarian)) of 34.9 µM and an IC50 (251L (Gastric)) of 720 nM. It also gave an IC50 (SF268 (CNS)) of 1520 nM, an IC50 (PC3M (Prostate)) of 910 nM and an IC50 (LNCAP (Prostate)) of 720 nM. For the same compound, the “Hemolytic activity (hemoglobin released)” value (Sheep red blood cells) was “did not display hemolytic activity up to 64 μg/mL”.
